The values that follow come from US10976319B2, “Cell response assay for cancer and methods of producing and using same” (Siemens Healthcare Diagnostics Inc., priority 2011, dated 2021).

Several values for one entry are separate records, joined by “and”; a condition that tells them apart may be missing. Identical values can stand only once.

For data set [1] the following is noted: cited from earlier work; for log Ka: Eu2+ complexed by amine poly carboxylate ions.
Data set [2] concerns breast cancer cells. As to the kind of experiment: Cell response assay for breast cancer, cells before and after camptothecin treatment. In kind it is cell-based. Here is the method:
(§1) The procedure to test the method was to collect 4 mL normal whole blood fresh into a VACUTAINER® tube (BD 6 mL VACUTAINER® K2EDTA tube, 10.8 mg, ref 367863, Becton Dickinson, Oakville, ON) and transfer the blood into a round centrifuge tube sealed with top. Cancer cells were added by 40 μL of breast cell cancer suspension to obtain a range of 3000 to 8000 cells/mL (8 cells/4 or 1-2 per high powered filed HRP (HRP=0.2 μL)). The blood was lysed by adding 3 mL of lysis buffer (155 mM NH4Cl, 20 mM KHCO3, 0.1 mM Na2EDTA, pH 7.4). The tubes were rolled tubes to assure that the cells were evenly distributed and that lysis was complete, and then the sample was spun down for 15 minutes at 12,000 rpm. Next, the plasma was decanted as waste supernatant, and 4.0 mL of TES buffer (50 mM N-Tris [Hydroxymethyl]-2-aminoethane-sulfonic acid: TES, pH 7.4, 2150 mM NaCl, 2 mM MgSO4 and 1 mM KCO3) and 1% albumin was added, and the tube was rocked to mix the cells. The tube was spun down again for 15 minutes at 12,000 rpm, and the supernatant was decanted as waste. A final 2.0 mL of TES wash buffer was added with rocking to mix cells.
(§2) The cells were then reacted with the reagents by taking 0.5 mL of washed blood to the centrifuge tube, and 40 μL of antibodies for HER2/neu labeled with Cy5 and 40 μL of antibodies for urokinase like plasminogen activator (uPA) or plasminogen activator inhibitor (PAI-1) labeled with Texas Red (at working stock of 0.001 to 0.1 mg/mL) and PL2L piwi like labeled with FITC (at working stock of 0.001 to 0.1 mg/mL) were added. Next, 10 μl of a 100 μg/ml 4,6 Diamidino-2-phenylindole dihydrochloride (DAPI; a nucleic acid binding probe) was added from a solution in TES buffer. This was followed by incubation for 15 minutes at 37° C.
The sample was centrifuged down for 5 minutes @ 7500 rpm, and the supernatant was decanted off as waste (^˜450 μL). 500 μL of TES buffer was then added, and the sample was vortexed and centrifuged down at 5 minutes @ 7500 rpm. Again, the supernatant was decanted off by tapping as waste (^˜450 μL). A final 500 μL of TES wash buffer was added for final imaging, and 5 μL of the solution was placed on a slide with a long cover slip of glass. Phase contrast and fluorescence microscopy was conducted with the Leica DM5000 (Leica Microsystems, Buffalo Grove, Ill.). A sample of cells was stained with the PSS-550 probe (ex 553, em 615 nm) and measured with an excitation band pass filter at 540-580 nm and an emission band pass filter at 610-680 nm to determine cell membrane flopping as a measure of cell death in addition to cell counts.
The Texas Red label (ex 592, em 614 nm) was measured with an excitation band pass filter at 540-580 nm and an emission band pass filter at 610-680 nm. The FITC label (ex 488, em 525 nm) was measured with an excitation band pass filter at 460-500 nm and an emission band pass filter at 512-543 nm. The DAPI probe (ex 355, em 460 nm) was measured with an excitation band pass filter at 340-380 nm and an emission band pass filter at 450-490 nm. The Cy5 label (ex 646, em 676 nm) was measured with an excitation band pass filter at 590-650 nm and an emission band pass filter at 665-735 nm.
A novel cell response assay for breast cancer was developed by using HER2/neu as a tissue type marker for carcinoma breast cancer (Biomarker A) that is always present in the disease state. […]

Data set [3] deals with prostate cancer cells. In words: Cell response assay for prostate cancer, cells before and after camptothecin treatment. Format: cell-based. Here is the method: as §1, with “prostate” for “breast”, “cells/μL” for “cells/4”
as §2, with “PSA” for “HER2/neu”
The sample was centrifuged down for 5 minutes @ 7500 rpm, and the supernatant was decanted off as waste (^˜450 μL). 500 μL of TES buffer was then added, and the sample was vortexed and centrifuged down at 5 minutes @ 7500 rpm. Again, the supernatant was decanted off by tapping as waste (^˜450 μL). A final 500 μL of TES wash buffer was added for final imaging, and 5 μL of the solution was placed on a slide with a long cover slip of glass. Phase contrast and fluorescence microscopy was conducted with the Leica DM5000 (Leica Microsystems, Buffalo Grove, Ill.).
The Texas Red label (ex 592, em 614 nm) was measured with a excitation band pass filter at 540-580 nm and emission band pass filter at 610-680 nm. The FITC label (ex 488, em 525 nm) was measured with an excitation band pass filter at 460-500 nm and an emission band pass filter at 512-543 nm. The DAPI probe (ex 355, em 460 nm) was measured with an excitation band pass filter at 340-380 nm and an emission band pass filter at 450-490 nm. The Cy5 label (ex 646, em 676 nm) was measured with an excitation band pass filter at 590-650 nm and an emission band pass filter at 665-735 nm.
A novel cell response assay for prostate cancer was developed by using PSA as a tissue type marker for prostate carcinoma (Biomarker A) that is always present in the disease state. […] Chemo resistance nature (Biomarker C) was determined using PL2L piwi like antigen to determine the inhibitory response to tissue invasiveness. […]

Where [4] appears, read: camptothecin concentration adjusted.
Where [5] appears, read: when the cell death % was highest.

`O=C(O)CN(CCN(CC(=O)O)CC(=O)O)CC(=O)O` [EDTA]: the “log Ka” value in data set [1] is given as 17.

With `O=C(O)CN(CCO)CCN(CC(=O)O)CC(=O)O` [HEDTA], the “log Ka” value in data set [1] is on record as 15.

For the molecule `O=C(CC(=O)C(F)(F)F)c1cccs1` [TTA, thenoyltriflouracetone], in data set [1] (europium chelate, when converted to enolate), the “association constant (log Ka)” value is given as 8.0.

On to `O=C(O)CN(CCN(CC(=O)O)CC(=O)O)CCN(CC(=O)O)CC(=O)O` [DTPA], for which the “log Ka” value in data set [1] was 23.

For the molecule `O=C(O)CNCC(=O)O` [IMDA], the “log Ka” value in data set [1] was 6.

On to `O=C(O)CN(CC(=O)O)C1CCCCC1N(CC(=O)O)CC(=O)O` (centres unmarked) [DCTA], for which the “log Ka” value in data set [1] is 19.

`CC(=O)CC(=O)c1ccccc1` [HBA, benzoylacetone]: in data set [1] (europium chelate), the “log K” value is recorded as 18.9.

Consider `CC[C@@]1(O)C(=O)OCc2c1cc1n(c2=O)Cc2cc3ccccc3nc2-1` [camptothecin], for which the cancer cell count result in data set [2] (as the cell death % increased) and in data set [3] (as the cell death % increased) was “decrease” in each case. The phosphatidylserine flopping entry in data set [2] (as the cell death % increased) and in data set [3] (as the cell death % increased) was “increased” each time. The “% of the cancer cells in cultures killed” value in data set [2] (setting [4]) was > 80% and 60% and 40%; in data set [3] (setting [4]) it was > 80% and 60% and 40%. For the same molecule, the “biomarker B, namely uPA and PA1 (metastatic potential)” value in data set [2] (setting [5]) and in data set [3] (setting [5]) was “increase” throughout. Moreover, the “biomarker C, namely PL2L piwi like (chemo resistance)” value in data set [2] (setting [5]) and in data set [3] (setting [5]) was “decrease” throughout.
